Data reported in DBAASP.
≈ marks a conversion by molar mass, not a printed value. Where “and” joins values, the source holds several entries; their conditions need not be identical. Identical values can stand only once. Blank lines part the entries; values can stand above or below the molecule they belong to.

How the values were obtained:
Experiment in all cases: ≥ marks a high value that may be exact or a test limit, other limits are often not marked, values filed in µg/mL are converted to µM
[1] = tested on: Escherichia coli ATCC 25726
[2] = tested on: Staphylococcus aureus ATCC 25923
Escherichia coli BW25113 = tested on: Escherichia coli BW25113
Enterococcus faecalis = tested on: Enterococcus faecalis
Enterococcus faecium = tested on: Enterococcus faecium
Acinetobacter baumannii = tested on: Acinetobacter baumannii
[3] = tested on: Candida albicans ATCC 90028
[4] = tested on: Pseudomonas aeruginosa ATCC 27853
Pseudomonas aeruginosa = tested on: Pseudomonas aeruginosa
Staphylococcus aureus = tested on: Staphylococcus aureus
[5] = tested on: Candida albicans ATCC 2002
[6] = tested on: Escherichia coli ATCC 25922
[7] = tested on: Pseudomonas aeruginosa CMCCB 10104
[8] = tested on: Staphylococcus aureus ATCC 2592
Escherichia coli K-12 = tested on: Escherichia coli K-12
Bacillus subtilis 168 = tested on: Bacillus subtilis 168

Compound: CC[C@H](C)[C@H](NC(=O)[C@@H]1CCCN1C(=O)[C@H](Cc1c[nH]c2ccccc12)NC(=O)[C@H](CCCN=C(N)N)NC(=O)[C@H](Cc1ccccc1)NC(=O)[C@@H](N)CCCN=C(N)N)C(=O)N[C@@H](CCCN=C(N)N)C(=O)N[C@@H](CCCN=C(N)N)C(=O)N[C@@H](CCCN=C(N)N)C(=O)N1CCC[C@H]1C(=O)N[C@H](C(=O)N[C@@H](CCCN=C(N)N)C(=O)N1CCC[C@H]1C(=O)N1CCC[C@H]1C(=O)N[C@@H](Cc1ccccc1)C(=O)N[C@@H](Cc1ccc(O)cc1)C(=O)N[C@@H](CCCN=C(N)N)C(=O)O)[C@@H](C)CC [RFRWPIRRRPIRPPFYR]
- MIC (Escherichia coli BW25113): 8 µM (≈ 19 µg/mL)

Compound: CC(C)C[C@H](NC(=O)[C@H](CC(C)C)NC(=O)[C@H](CC(C)C)NC(=O)[C@H](CC(C)C)NC(=O)[C@H](CC(C)C)NC(=O)[C@H](CCCN=C(N)N)NC(=O)[C@H](Cc1c[nH]c2ccccc12)NC(=O)[C@@H](N)CCCN=C(N)N)C(=O)N[C@@H](CCCCN)C(=O)N[C@@H](CCCN=C(N)N)C(=O)N[C@@H](Cc1cnc[nH]1)C(=O)O [RWRLLLLLKRH]
- MIC (Enterococcus faecalis): 23.5 µM (≈ 35.4 µg/mL)
- MIC (Enterococcus faecium): 23.5 µM (≈ 35.4 µg/mL)

Compound: CC[C@H](C)[C@H](NC(=O)[C@@H]1CCCN1C(=O)[C@H](CCCN=C(N)N)NC(=O)[C@H](CCCN=C(N)N)NC(=O)[C@H](Cc1ccccc1)NC(=O)[C@@H](N)CCCN=C(N)N)C(=O)N[C@@H](CCCN=C(N)N)C(=O)N[C@@H](CCCN=C(N)N)C(=O)N1CCC[C@H]1C(=O)N1CCC[C@H]1C(=O)N[C@H](C(=O)N[C@@H](CCCN=C(N)N)C(=O)N1CCC[C@H]1C(=O)N1CCC[C@H]1C(=O)N[C@@H](Cc1ccccc1)C(=O)N[C@@H](Cc1ccc(O)cc1)C(=O)N1CCC[C@H]1C(=O)O)[C@@H](C)CC [RFRRPIRRPPIRPPFYP]
- MIC (Escherichia coli BW25113): 4 µM (≈ 8.89 µg/mL)

Compound: CC[C@H](C)[C@H](NC(=O)[C@H](CCCCN)NC(=O)[C@H](CO)NC(=O)[C@H](C)NC(=O)[C@H](Cc1c[nH]c2ccccc12)NC(=O)CN)C(=O)NCC(=O)N[C@@H](CCC(N)=O)C(=O)N[C@H](C(=O)N[C@@H](CC(C)C)C(=O)NCC(=O)N[C@@H](CCCCN)C(=O)N[C@@H](CCSC)C(=O)N[C@@H](C)C(=O)N[C@@H](CCCCN)C(=O)N[C@H](C(=O)NCC(=O)N[C@@H](CC(C)C)C(=O)N[C@@H](CCC(N)=O)C(=O)N[C@@H](CCC(=O)O)C(=O)N[C@@H](CC(C)C)C(=O)N[C@H](C(=O)N[C@@H](CCC(N)=O)C(=O)N1CCC[C@H]1C(=O)N[C@@H](CCCCN)C(=O)O)[C@@H](C)CC)C(C)C)[C@@H](C)O [GWASKIGQTLGKMAKVGLQELIQPK]
- MIC [1]: ≥ 50 µM
- MIC [2]: 50 µM (≈ 134 µg/mL)

Compound: CC[C@H](C)[C@H](NC(=O)[C@H](CCCN=C(N)N)NC(=O)[C@H](CCC(N)=O)NC(=O)[C@@H](NC(=O)[C@@H](NC(=O)[C@H](CCC(N)=O)NC(=O)[C@H](C)N)[C@@H](C)CC)C(C)C)C(=O)N[C@@H](CCCCN)C(=O)N[C@@H](CC(=O)O)C(=O)N[C@@H](Cc1ccccc1)C(=O)N[C@@H](CC(C)C)C(=O)N[C@@H](CCCN=C(N)N)C(N)=O [AQIVQRIKDFLR]
- MIC (Escherichia coli K-12): ≥ 240 µM

Compound: CC[C@H](C)[C@H](N)C(=O)NCC(=O)N[C@@H](CC(C)C)C(=O)N[C@@H](CCCN=C(N)N)C(=O)NCC(=O)N[C@@H](CC(C)C)C(=O)NCC(=O)N[C@@H](CCCN=C(N)N)C(=O)N[C@@H](CCCCN)C(=O)N[C@H](C(=O)N[C@@H](C)C(=O)N[C@@H](CC(C)C)C(=O)N[C@H](C(=O)N[C@@H](Cc1cnc[nH]1)C(=O)N[C@@H](CCCCN)C(=O)N[C@@H](CCCCN)C(=O)N[C@@H](Cc1ccc(O)cc1)C(=O)NCC(=O)O)[C@@H](C)CC)[C@@H](C)CC [IGLRGLGRKIALIHKKYG]
- MIC (Bacillus subtilis 168): ≥ 120 µM
- MIC (Escherichia coli K-12): ≥ 120 µM

Other lines, results leading:

- MIC [1]: 18.4 µM (≈ 62.5 µg/mL)
- MIC [2]: 36.7 µM (≈ 125 µg/mL)
Compound: CC[C@H](C)[C@H](NC(=O)[C@H](CCSC)NC(=O)[C@H](C)NC(=O)[C@H](CC(N)=O)NC(=O)[C@H](CCCCN)NC(=O)[C@H](Cc1ccccc1)NC(=O)[C@H](CO)NC(=O)[C@H](CC(=O)O)NC(=O)[C@H](CC(C)C)NC(=O)[C@H](Cc1ccccc1)NC(=O)CN)C(=O)NCC(=O)N[C@H](C(=O)N[C@@H](C)C(=O)N[C@@H](CCCCN)C(=O)N[C@@H](CO)C(=O)N[C@H](C(=O)NCC(=O)N[C@@H](CCCCN)C(=O)N[C@H](C(=O)N[C@@H](C)C(=O)N[C@@H](CC(C)C)C(=O)N[C@@H](CO)C(=O)N[C@H](C(=O)N[C@@H](CC(C)C)C(=O)N[C@@H](C)C(=O)N[C@H]1CSSC[C@@H](C(=O)O)NC(=O)[C@H](CO)NC(=O)[C@H](CCCCN)NC(=O)[C@H](CC(=O)O)NC(=O)[C@H]([C@@H](C)CC)NC(=O)[C@H](CCCCN)NC1=O)[C@@H](C)O)[C@@H](C)O)C(C)C)C(C)C [GFLDSFKNAMIGVAKSVGKTALSTLACKIDKSC]

- MIC (Acinetobacter baumannii): 25 µM (≈ 57.6 µg/mL)
- MIC [3]: 12.5 µM (≈ 28.8 µg/mL)
- MIC [1]: ≥ 100 µM
- MIC [2]: 25 µM (≈ 57.6 µg/mL)
Compound: CC[C@H](C)[C@H](NC(=O)CN)C(=O)N[C@@H](Cc1c[nH]c2ccccc12)C(=O)N[C@@H](CC(=O)O)C(=O)N[C@H](C(=O)N[C@H](C(=O)N[C@@H](CCCCN)C(=O)N[C@@H](CO)C(=O)N[C@@H](CCSC)C(=O)NCC(=O)N[C@@H](CCCCN)C(=O)N[C@H](C(=O)N[C@@H](Cc1ccccc1)C(=O)N[C@@H](C)C(=O)NCC(=O)N[C@@H](CC(C)C)C(=O)N[C@H](C(=O)N[C@@H](CC(C)C)C(=O)N[C@@H](CCC(N)=O)C(=O)N[C@@H](CC(N)=O)C(=O)N[C@@H](CC(C)C)C(N)=O)[C@@H](C)CC)C(C)C)[C@@H](C)CC)[C@@H](C)O [GIWDTIKSMGKVFAGLILQNL]

- MIC (Acinetobacter baumannii): 5.06 µM (≈ 8 µg/mL)
- MIC (Enterococcus faecalis): 7.59 µM (≈ 12 µg/mL)
- MIC [4]: 40.5 µM and > 20.2 µM
- MIC (Pseudomonas aeruginosa): 10.1 µM (≈ 16 µg/mL)
- MIC (Staphylococcus aureus): 15.2 µM (≈ 24 µg/mL)
Compound: CC[C@H](C)[C@H](NC(=O)[C@H](C)NC(=O)[C@H](CCCCN)NC(=O)[C@H](CC(C)C)NC(=O)[C@H](CCCCN)NC(=O)[C@@H](N)CC(C)C)C(=O)N[C@@H](C)C(=O)N[C@@H](C)C(=O)N[C@@H](CC(C)C)C(=O)N[C@@H](C)C(=O)N[C@@H](CCCCN)C(=O)N[C@@H](CCCCN)C(=O)N[C@@H](CCCCN)C(=O)N[C@@H](Cc1c[nH]c2ccccc12)C(N)=O [LKLKAIAALAKKKW]

- MIC [5]: 3.06 µM (≈ 6 µg/mL)
- MIC [6]: 6.12 µM (≈ 12 µg/mL)
- MIC [7]: 6.12 µM (≈ 12 µg/mL)
- MIC [8]: 3.06 µM (≈ 6 µg/mL)
Compound: CC[C@H](C)[C@H](N)C(=O)N[C@@H](CC(C)C)C(=O)NCC(=O)N1CCC[C@H]1C(=O)N[C@H](C(=O)N[C@H](C(=O)N[C@@H](CO)C(=O)N[C@@H](CCCCN)C(=O)N[C@H](C(=O)NCC(=O)NCC(=O)N[C@H](C(=O)N[C@@H](CC(C)C)C(=O)NCC(=O)NCC(=O)N[C@@H](CC(C)C)C(=O)N[C@@H](CC(C)C)C(=O)N[C@@H](CCCCN)C(=O)N[C@@H](CC(N)=O)C(=O)N[C@@H](CC(C)C)C(N)=O)C(C)C)[C@@H](C)CC)[C@@H](C)CC)C(C)C [ILGPVISKIGGVLGGLLKNL]

- MIC (Escherichia coli BW25113): 4 µM (≈ 9.73 µg/mL)
Compound: CC[C@H](C)[C@H](NC(=O)[C@@H]1CCCN1C(=O)[C@H](Cc1c[nH]c2ccccc12)NC(=O)[C@H](CCCN=C(N)N)NC(=O)[C@H](Cc1c[nH]c2ccccc12)NC(=O)[C@@H](N)CCCN=C(N)N)C(=O)N[C@@H](CCCN=C(N)N)C(=O)N[C@@H](CCCN=C(N)N)C(=O)N[C@@H](CCCN=C(N)N)C(=O)N1CCC[C@H]1C(=O)N[C@H](C(=O)N[C@@H](CCCN=C(N)N)C(=O)N1CCC[C@H]1C(=O)N1CCC[C@H]1C(=O)N[C@@H](Cc1ccccc1)C(=O)N[C@@H](Cc1c[nH]c2ccccc12)C(=O)N[C@@H](CCCN=C(N)N)C(=O)O)[C@@H](C)CC [RWRWPIRRRPIRPPFWR]

- MIC (Escherichia coli BW25113): 8 µM (≈ 19.6 µg/mL)
Compound: CC[C@H](C)[C@H](NC(=O)[C@@H]1CCCN1C(=O)[C@H](CCCN=C(N)N)NC(=O)[C@H](CCCN=C(N)N)NC(=O)[C@H](CCCN=C(N)N)NC(=O)[C@H](Cc1c[nH]c2ccccc12)NC(=O)[C@@H]1CCCN1C(=O)[C@H](CCCN=C(N)N)NC(=O)[C@H](CCCN=C(N)N)NC(=O)[C@H](Cc1c[nH]c2ccccc12)NC(=O)[C@@H](N)CCCN=C(N)N)C(=O)N[C@@H](CCCN=C(N)N)C(=O)N1CCC[C@H]1C(=O)N1CCC[C@H]1C(=O)N[C@@H](Cc1ccccc1)C(=O)N[C@@H](Cc1ccc(O)cc1)C(=O)N[C@@H](CCCN=C(N)N)C(=O)O [RWRRPWRRRPIRPPFYR]
